Measured values published in patent US10358446B2, “Bruton's tyrosine kinase inhibitors” (Zibo Biopolar Changsheng Pharmaceutical Co. Ltd., priority 2015, dated 2019).

Molecular target: BTK (Homo sapiens (Human), UniProt Q06187)
Assay: Btk kinase assay (HTRF)
Format: biochemical
Conditions: [ATP]=80 μM, BTK=3.4 nM; read-out: BTK Inhibition
Method in brief: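 BTK (3.4 nM) incubated 1 h with inhibitor, 80 μM ATP and 1 μM peptide substrate in 50 mM HEPES pH 7.0 with BSA and orthovanadate. Reaction stopped with EDTA plus Eu-antibody/XL665; HTRF 665/615 ratio read after 1 h, IC50 calculated relative to no-inhibitor and no-enzyme controls.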

Chain of BTK (Q06187 whole entry, species assumed): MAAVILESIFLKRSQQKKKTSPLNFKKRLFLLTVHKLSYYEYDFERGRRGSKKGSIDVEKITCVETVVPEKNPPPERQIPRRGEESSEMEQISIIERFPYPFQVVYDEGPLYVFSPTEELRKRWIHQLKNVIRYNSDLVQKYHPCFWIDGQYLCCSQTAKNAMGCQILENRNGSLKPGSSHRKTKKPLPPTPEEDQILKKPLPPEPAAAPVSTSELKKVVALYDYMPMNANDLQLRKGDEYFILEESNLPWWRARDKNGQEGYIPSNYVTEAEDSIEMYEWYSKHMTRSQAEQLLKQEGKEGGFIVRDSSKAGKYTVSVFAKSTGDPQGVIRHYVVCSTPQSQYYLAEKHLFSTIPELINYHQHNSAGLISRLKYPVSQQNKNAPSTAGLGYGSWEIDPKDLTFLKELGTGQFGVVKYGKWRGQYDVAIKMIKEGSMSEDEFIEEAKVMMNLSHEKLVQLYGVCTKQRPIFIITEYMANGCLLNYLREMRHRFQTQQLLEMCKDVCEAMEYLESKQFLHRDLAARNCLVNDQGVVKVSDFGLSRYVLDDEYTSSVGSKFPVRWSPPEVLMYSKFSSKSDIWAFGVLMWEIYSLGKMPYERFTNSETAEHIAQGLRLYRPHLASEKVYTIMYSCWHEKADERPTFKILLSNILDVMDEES

IC50	SMILES
10 to 100 nM	C=CC(=O)N1CC[C@@H](n2c(=O)n(-c3ccc(Oc4ccccc4)c(F)c3)c3cnccc32)C1 [Example 95, (R)-1-(1-acryloylpyrrolidin-3-yl)-3-(3-fluoro-4-phenoxyphenyl)-1,3-dihydro-2H-imidazo[4,5-c]pyridin-2-one]
10 to 100 nM	C=CC(=O)Nc1cccc(-n2c(=O)n(-c3cccc(Oc4cccc(Cl)c4F)c3)c3cnccc32)c1 [Example 96, N-(3-(3-(3-(3-chloro-2-fluorophenoxy)phenyl)-2-oxo-2,3-dihydro-1H-imidazo[4,5-c]pyridin-1-yl)phenyl)acrylamide]
10 to 100 nM	C=CC(=O)N1CC[C@@H](n2c(=O)n(-c3cccc(Oc4cccc(Cl)c4F)c3)c3cnccc32)C1 [Example 97, (R)-1-(1-acryloylpyrrolidin-3-yl)-3-(3-(3-chloro-2-fluorophenoxy)phenyl)-1,3-dihydro-2H-imidazo[4,5-c]pyridin-2-one]
10 to 100 nM	C=CC(=O)Nc1cccc(-n2c(=O)n(-c3ccc(Oc4cccc(Cl)c4Cl)cc3)c3cnccc32)c1 [Example 98, N-(3-(3-(4-(2,3-dichlorophenoxy)phenyl)-2-oxo-2,3-dihydro-1H-imidazo[4,5-c]pyridin-1-yl)phenyl)acrylamide]
10 to 100 nM	C=CC(=O)N1CC[C@@H](n2c(=O)n(-c3ccc(Oc4cccc(Cl)c4Cl)cc3)c3cnccc32)C1 [Example 99, (R)-1-(1-acryloylpyrrolidin-3-yl)-3-(4-(2,3-dichlorophenoxy)phenyl)-1,3-dihydro-2H-imidazo[4,5-c]pyridin-2-one]
10 to 100 nM	C=CC(=O)N1CCC[C@@H](n2c(=O)n(-c3ccc(Oc4cccc(Cl)c4Cl)cc3)c3cnccc32)C1 [Example 100, (R)-1-(1-acryloylpiperidin-3-yl)-3-(4-(2,3-dichlorophenoxy)phenyl)-1,3-dihydro-2H-imidazo[4,5-c]pyridin-2-one]
10 to 100 nM	C=CC(=O)N1CC[C@@H](n2c(=O)n(-c3ccc(Oc4cccc(Cl)c4F)c(F)c3)c3cnccc32)C1 [Example 101, (R)-1-(1-acryloylpyrrolidin-3-yl)-3-(4-(3-chloro-2-fluorophenoxy)-3-fluorophenyl)-1,3-dihydro-2H-imidazo[4,5-c]pyridin-2-one]
10 to 100 nM	C=CC(=O)N1CC[C@@H](n2c(=O)n(-c3ccc(Oc4cccc(F)c4Cl)cc3)c3cnccc32)C1 [Example 102, (R)-1-(1-acryloylpyrrolidin-3-yl)-3-(4-(2-chloro-3-fluorophenoxy)phenyl)-1,3-dihydro-2H-imidazo[4,5-c]pyridin-2-one]
100 to 1000 nM	C=CC(=O)N1CC[C@@H](n2c(=O)n(-c3ccc(Oc4ccccn4)cc3)c3cnccc32)C1 [Example 104, (R)-1-(1-acryloylpyrrolidin-3-yl)-3-(4-(pyridin-2-yloxy)phenyl)-1,3-dihydro-2H-imidazo[4,5-c]pyridin-2-one]
10 to 100 nM	C=CC(=O)N1CCC[C@@H](n2c(=O)n(-c3ccc(Oc4cccc(C)c4)c(F)c3)c3cnccc32)C1 [Example 105, (R)-1-(1-acryloylpiperidin-3-yl)-3-(3-fluoro-4-(m-tolyloxy)phenyl)-1H-imidazo[4,5-c]pyridin-2(3H)-one]
10 to 100 nM	C=CC(=O)N1CCC[C@@H](n2c(=O)n(-c3ccc(Oc4cccc(Cl)c4)cc3)c3cnccc32)C1 [Example 106, (R)-1-(1-acryloylpiperidin-3-yl)-3-(4-(3-chlorophenoxy)phenyl)-1H-imidazo[4,5-c]pyridin-2(3H)-one]
10 to 100 nM	C=CC(=O)N1CCC[C@@H](n2c(=O)n(-c3ccc(Oc4ccccc4)c(Cl)c3)c3cnccc32)C1 [Example 107, (R)-1-(1-acryloylpiperidin-3-yl)-3-(3-chloro-4-phenoxyphenyl)-1H-imidazo[4,5-c]pyridin-2(3H)-one]
10 to 100 nM	C=CC(=O)N1CCC[C@@H](n2c(=O)n(-c3ccc(Oc4cccc(C)c4)c(Cl)c3)c3cnccc32)C1 [Example 108, (R)-1-(1-acryloylpiperidin-3-yl)-3-(3-chloro-4-(m-tolyloxy)phenyl)-1H-imidazo[4,5-c]pyridin-2(3H)-one]
≥ 10000 nM	O=C(/C=C/c1ccccc1)Nc1cccc(-n2c(=O)n(-c3ccc(Oc4ccccc4)cc3)c3cnccc32)c1 [Example 109, N-(3-(2-oxo-3-(4-phenoxyphenyl)-2,3-dihydro-1H-imidazo[4,5-c]pyridin-1-yl)phenyl)cinnamamide]
100 to 1000 nM	C=C(C)C(=O)Nc1cccc(-n2c(=O)n(-c3ccc(Oc4ccccc4)cc3)c3cnccc32)c1 [Example 110, N-(3-(2-oxo-3-(4-phenoxyphenyl)-2,3-dihydro-1H-imidazo[4,5-c]pyridin-1-yl)phenyl)methacrylamide]
1000 to 10000 nM	C=CC(=O)Nc1cccc(-n2c(=O)n(-c3ccc(Oc4ccc(C(F)(F)F)cc4)c(Cl)c3)c3cnccc32)c1 [Example 111, N-(3-(3-(3-chloro-4-(4-(trifluoromethyl)phenoxy)phenyl)-2-oxo-2,3-dihydro-1H-imidazo[4,5-c]pyridin-1-yl)phenyl)acrylamide]
10 to 100 nM	C=CC(=O)N1CCC(n2c(=O)n(-c3ccc(Oc4cccc(OC(F)(F)F)c4)cc3)c3cnccc32)C1 (stereo not drawn) [Example 112, 1-(1-acryloylpyrrolidin-3-yl)-3-(4-(3-(trifluoromethoxy)phenoxy)phenyl)-1H-imidazo[4,5-c]pyridin-2(3H)-one]
10 to 100 nM	C=CC(=O)Nc1cccc(-n2c(=O)n(-c3ccc(Oc4cccc(OCC)c4)cc3)c3cnccc32)c1 [Example 113, N-(3-(3-(4-(3-ethoxyphenoxy)phenyl)-2-oxo-2,3-dihydro-1H-imidazo[4,5-c]pyridin-1-yl)phenyl)acrylamide]
10 to 100 nM	C=CC(=O)Nc1cccc(-n2c(=O)n(-c3ccc(Oc4cccc(C(C)C)c4)cc3)c3cnccc32)c1 [Example 114, N-(3-(3-(4-(3-isopropylphenoxy)phenyl)-2-oxo-2,3-dihydro-1H-imidazo[4,5-c]pyridin-1-yl)phenyl)acrylamide]
100 to 1000 nM	C=CC(=O)Nc1cccc(-n2c(=O)n(-c3ccc(Oc4ccnc(C(=O)NC)c4)cc3)c3cnccc32)c1 [Example 115, 4-(4-(1-(3-acrylamidophenyl)-2-oxo-1H-imidazo[4,5-c]pyridin-3(2H)-yl)phenoxy)-N-methylpicolinamide]

More lines, now with the values behind:

SMILES	IC50
C=CC(=O)N1CC[C@@H](n2c(=O)n(-c3ccc(Oc4ccc(Cl)cc4)cc3)c3cnccc32)C1 [Example 82, (R)-1-(1-acryloylpyrrolidin-3-yl)-3-(4-(4-chlorophenoxy)phenyl)-1H-imidazo[4,5-c]pyridin-2(3H)-one]	100 to 1000 nM
C=CC(=O)N1CC[C@@H](n2c(=O)n(-c3ccc(Oc4ccccc4C)cc3)c3cnccc32)C1 [Example 83, (R)-1-(1-acryloylpyrrolidin-3-yl)-3-(4-(o-tolyloxy)phenyl)-1H-imidazo[4,5-c]pyridin-2(3H)-one]	10 to 100 nM
C=CC(=O)N1CC[C@@H](n2c(=O)n(-c3ccc(Oc4cccc(F)c4)cc3)c3cnccc32)C1 [Example 84, (R)-1-(1-acryloylpyrrolidin-3-yl)-3-(4-(3-fluorophenoxy)phenyl)-1H-imidazo[4,5-c]pyridin-2(3H)-one]	10 to 100 nM
C=CC(=O)Nc1cccc(-n2c(=O)n(-c3ccc(Oc4cccc(OC(C)C)c4)cc3)c3cnccc32)c1 [Example 85, N-(3-(3-(4-(3-isopropoxyphenoxy)phenyl)-2-oxo-2,3-dihydro-1H-imidazo[4,5-c]pyridin-1-yl)phenyl)acrylamide]	10 to 100 nM
C=CC(=O)Nc1cccc(-n2c(=O)n(-c3ccc(Oc4cccc(OC)c4)c(Cl)c3)c3cnccc32)c1 [Example 86, N-(3-(3-(3-chloro-4-(3-methoxyphenoxy)phenyl)-2-oxo-2,3-dihydro-1H-imidazo[4,5-c]pyridin-1-yl)phenyl)acrylamide]	100 to 1000 nM
C=CC(=O)Nc1cccc(-n2c(=O)n(-c3cccc(Oc4cccc(OC)c4)c3)c3cnccc32)c1 [Example 87, N-(3-(3-(3-(3-methoxyphenoxy)phenyl)-2-oxo-2,3-dihydro-1H-imidazo[4,5-c]pyridin-1-yl)phenyl)acrylamide]	10 to 100 nM
C=CC(=O)Nc1cccc(-n2c(=O)n(-c3cccc(Oc4ccccc4C)c3)c3cnccc32)c1 [Example 88, N-(3-(2-oxo-3-(3-(o-tolyloxy)phenyl)-2,3-dihydro-1H-imidazo[4,5-c]pyridin-1-yl)phenyl)acrylamide]	10 to 100 nM
C=CC(=O)Nc1cccc(-n2c(=O)n(-c3cccc(Oc4ccccc4OC)c3)c3cnccc32)c1 [Example 89, N-(3-(3-(3-(2-methoxyphenoxy)phenyl)-2-oxo-2,3-dihydro-1H-imidazo[4,5-c]pyridin-1-yl)phenyl)acrylamide]	10 to 100 nM
C=CC(=O)Nc1cccc(-n2c(=O)n(-c3ccc(Oc4cccc(F)c4)c(F)c3)c3cnccc32)c1 [Example 90, N-(3-(3-(3-fluoro-4-(3-fluorophenoxy)phenyl)-2-oxo-2,3-dihydro-1H-imidazo[4,5-c]pyridin-1-yl)phenyl)acrylamide]	10 to 100 nM
C=CC(=O)N1CCC(n2c(=O)n(-c3ccc(Oc4ccccc4)c(C)c3)c3cnccc32)C1 (stereo not drawn) [Example 91, 1-(1-acryloylpyrrolidin-3-yl)-3-(3-methy1-4-phenoxyphenyl)-1,3-dihydro-2H-imidazo[4,5-c]pyridin-2-one]	10 to 100 nM
C=CC(=O)N1CCC(n2c(=O)n(-c3ccc(Oc4cccc(OC)c4)c(C)c3)c3cnccc32)C1 (stereo not drawn) [Example 92, 1-(1-acryloylpyrrolidin-3-yl)-3-(4-(3-methoxyphenoxy)-3-methylphenyl)-1,3-dihydro-2H-imidazo[4,5-c]pyridin-2-one]	10 to 100 nM
C=CC(=O)Nc1cccc(-n2c(=O)n(-c3ccc(Oc4ccccc4)c(F)c3)c3cnccc32)c1 [Example 93, N-(3-(3-(3-fluoro-4-phenoxyphenyl)-2-oxo-2,3-dihydro-1H-imidazo[4,5-c]pyridin-1-yl)phenyl)acrylamide]	≤ 10 nM
C=CC(=O)Nc1cccc(-n2c(=O)n(-c3ccc(Oc4cccc(OC)c4)c(F)c3)c3cnccc32)c1 [Example 94, N-(3-(3-(3-fluoro-4-(3-methoxyphenoxy)phenyl)-2-oxo-2,3-dihydro-1H-imidazo[4,5-c]pyridin-1-yl)phenyl)acrylamide]	10 to 100 nM
